21 molecules from PubChem BioAssay AID206 (DTP/NCI, 2004) can be followed below.

“And” between values parts separate entries of the source, which are not always exact repeats. Equal values may be shown once. Records with an inconclusive call do not appear.

The assay has as its system nude mice, HT29 intrarenal xenograft, tumor weight T/C. The assay can be described thus: NCI In Vivo Anticancer Drug Screen. Data for tumor model HT29;CX-1 Human Adenocarcinoma (MER+) (intrarenal inoculation) in NU/NU Swiss (nude) mice. The note with it: endpoint: mean tumor weight change, higher = larger tumour. In a few lines:
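Mice with transplanted tumors are dosed with compound while controls get vehicle only. Survival or tumor burden is then assessed per group, and the treated value is expressed relative to control.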

Where [1] appears, read: dose: 300.0 mg/kg/injection, schedule: Q04DX004 (sc), vehicle: saline with Tween-80.
Setting [2] is: dose: 1200.0 mg/kg/injection, schedule: Q04DX004 (sc), vehicle: saline with Tween-80.
[3] abbreviates: dose: 100.0 mg/kg/injection, schedule: Q01DX010 (sc), vehicle: saline with Tween-80.
Setting [4] is: dose: 150.0 mg/kg/injection, schedule: Q04DX004 (sc), vehicle: suspension in saline.
Setting [5] is: dose: 600.0 mg/kg/injection, schedule: Q04DX004 (sc), vehicle: suspension in saline.

With `CC[C@@]1(O)C[C@H](OC2CC(N(C)C)C(OC3CC(O)C(OC4CCC(=O)C(C)O4)C(C)O3)C(C)O2)c2c(cc3c(c2O)C(=O)c2c(O)ccc(O)c2C3=O)[C@H]1C(=O)OC` (stereo partly specified), the T/C (dose: 3.0 mg/kg/injection, schedule: Q04DX004 (sc), vehicle: water) is 12 % of control and the T/C (dose: 6.0 mg/kg/injection, schedule: Q04DX004 (sc), vehicle: water) was -24 % of control.

For `CO[C@H](C(=O)[C@@H](O)[C@@H](C)O)[C@@H]1Cc2cc3cc(OC4CC(OC5CC(O)C(O)C(C)O5)C(O)C(C)O4)c(C)c(O)c3c(O)c2C(=O)[C@H]1OC1CC(OC2CC(OC3CC(C)(O)C(O)C(C)O3)C(O)C(C)O2)C(O)C(C)O1` (stereo partly specified), the T/C (dose: 0.25 mg/kg/injection, schedule: Q04DX004 (sc), vehicle: saline) is 87 % of control; the T/C (dose: 0.5 mg/kg/injection, schedule: Q04DX004 (sc), vehicle: saline) was 53 % of control; the T/C (dose: 1.0 mg/kg/injection, schedule: Q04DX004 (sc), vehicle: saline) is 54 % of control; the T/C (dose: 2.0 mg/kg/injection, schedule: Q01DX010 (sc), vehicle: saline) was -80 % of control; the T/C (dose: 2.0 mg/kg/injection, schedule: Q04DX004 (sc), vehicle: saline) was 61 % of control.

`C[N+](C)(C)c1ncnc2c1ncn2C1CCCO1` (stereo unspecified): the T/C was 80 % of control (dose: 6.25 mg/kg/injection, schedule: Q01DX010 (sc), vehicle: saline); 120 % of control (dose: 12.5 mg/kg/injection, schedule: Q01DX010 (sc), vehicle: saline); 90 % of control (dose: 25.0 mg/kg/injection, schedule: Q01DX010 (sc), vehicle: saline).

With `CS(=O)(=O)OCCCCOS(C)(=O)=O`, the T/C runs as follows: (dose: 6.25 mg/kg/injection, schedule: Q01DX010 (sc), vehicle: saline with Tween-80) 121 % of control; (dose: 25.0 mg/kg/injection, schedule: Q01DX010 (sc), vehicle: saline with Tween-80) 238 % of control.

For the molecule `C=C1C(=O)C2=CC1CCC(=O)C1(C)CCC(OC(C)=O)C(C)(C)C1CC2O` (stereo unspecified), the T/C runs as follows: (dose: 60.0 mg/kg/injection, schedule: Q04DX004 (sc), vehicle: Klucel (hydroxypropylcellulose) (HPC)) 91 % of control; (dose: 120.0 mg/kg/injection, schedule: Q04DX004 (sc), vehicle: Klucel (hydroxypropylcellulose) (HPC)) 116 % of control.

Regarding `C=C(C(=O)O)C(N)C(=O)O` (stereo unspecified), the T/C is, setting by setting: (dose: 225.0 mg/kg/injection, schedule: Q04DX004 (sc), vehicle: suspension in saline) 114 % of control; (dose: 450.0 mg/kg/injection, schedule: Q04DX004 (sc), vehicle: suspension in saline) 64 % of control; (dose: 900.0 mg/kg/injection, schedule: Q04DX004 (sc), vehicle: suspension in saline) 109 % of control.

For `O=Cc1ccc(O)c(O)c1`, the T/C under setting [1] was 86 % of control; the T/C (dose: 600.0 mg/kg/injection, schedule: Q04DX004 (sc), vehicle: saline with Tween-80) was 58 % of control; the T/C under setting [2] is 100 % of control.

On to `S=C=NCCc1ccccc1`, for which the T/C under setting [3] was 57 % of control (2×) and 61 % of control.

With `c1cc[c]([Sn]([NH]c2ncnc3[nH]cnc23)([NH]c2ncnc3[nH]cnc23)[c]2ccccc2)cc1`, the T/C under setting [4] was 89 % of control; the T/C (dose: 300.0 mg/kg/injection, schedule: Q04DX004 (sc), vehicle: suspension in saline) was 47 % of control; the T/C under setting [5] was 28 % of control; the T/C (dose: 1200.0 mg/kg/injection, schedule: Q04DX004 (sc), vehicle: suspension in saline) is 124 % of control.

For the molecule `CSC(SC)=C1C(=O)NC(=O)NC1=O`, the T/C (dose: 18.7 mg/kg/injection, schedule: Q04DX004 (sc), vehicle: suspension in saline) was 66 % of control; the T/C (dose: 37.5 mg/kg/injection, schedule: Q04DX004 (sc), vehicle: suspension in saline) was 77 % of control; the T/C (dose: 75.0 mg/kg/injection, schedule: Q04DX004 (sc), vehicle: suspension in saline) was 49 % of control; the T/C under setting [4] is 56 % of control; the T/C under setting [5] was 97 % of control.

Turning to `CC1OC(=O)C(C(C)C)NC(=O)C(C(C)C)OC(=O)C(C(C)C)NC(=O)C(C)OC(=O)C(C(C)C)NC(=O)C(C(C)C)OC(=O)C(C(C)C)NC(=O)C(C)OC(=O)C(C(C)C)NC(=O)C(C(C)C)OC(=O)C(C(C)C)NC1=O` (stereo unspecified), the T/C (dose: 5.0 mg/kg/injection, schedule: Q01DX010 (sc), vehicle: saline with Tween-80) was 87 % of control and 103 % of control.

With `Nc1nc2c(C(=O)N3CCCC3)nnn2c2ccccc12`, where the note is “dose: 75.0 mg/kg/injection, schedule: Q04DX004 (sc), vehicle: saline with Tween-80”, the T/C was 157 % of control.

Consider `Cc1c2cc[n+](C)cc2c(C)c2c1[nH]c1ccc(O)cc12`, for which the T/C reads like this: (dose: 1.25 mg/kg/injection, schedule: Q04DX004 (sc), vehicle: water) 360 % of control; (dose: 2.5 mg/kg/injection, schedule: Q04DX004 (sc), vehicle: water) 120 % of control.

Take `F[B-](F)(F)F`: the T/C was 106 % of control (dose: 225.0 mg/kg/injection, schedule: Q04DX004 (sc), vehicle: gum acacia); 85 % of control (dose: 450.0 mg/kg/injection, schedule: Q04DX004 (sc), vehicle: gum acacia); 69 % of control (dose: 900.0 mg/kg/injection, schedule: Q04DX004 (sc), vehicle: gum acacia).

As for `CCOC(C)C(/C=N/NC(N)=S)=NNC(N)=S` (stereo unspecified), the T/C was 76 % of control under setting [3]; 49 % of control (dose: 200.0 mg/kg/injection, schedule: Q01DX010 (sc), vehicle: saline with Tween-80); 68 % of control (dose: 400.0 mg/kg/injection, schedule: Q01DX010 (sc), vehicle: saline with Tween-80).

Consider `OCCOCC(F)(F)F`, for which the T/C was 67 % of control (dose: 300.0 mg/kg/injection, schedule: Q04DX004 (sc), vehicle: saline); 91 % of control (dose: 600.0 mg/kg/injection, schedule: Q04DX004 (sc), vehicle: saline); 100 % of control (dose: 1200.0 mg/kg/injection, schedule: Q04DX004 (sc), vehicle: saline); 58 % of control (dose: 2400.0 mg/kg/injection, schedule: Q04DX004 (sc), vehicle: saline).

`COc1cccc(C2NC(=O)c3c(n[nH]c3N)S2)c1O` (stereo unspecified): the T/C reads like this: under setting [2], 53 % of control; (dose: 2400.0 mg/kg/injection, schedule: Q04DX004 (sc), vehicle: saline with Tween-80) 117 % of control.

As to `CCOC(=O)C(N)CSC(=O)NC` (stereo unspecified), the T/C by setting is: (dose: 100.0 mg/kg/injection, schedule: Q04DX004 (sc), vehicle: saline) 92 % of control; (dose: 200.0 mg/kg/injection, schedule: Q04DX004 (sc), vehicle: saline) 96 % of control; (dose: 400.0 mg/kg/injection, schedule: Q04DX004 (sc), vehicle: saline) 103 % of control; (dose: 800.0 mg/kg/injection, schedule: Q04DX004 (sc), vehicle: saline) 62 % of control.

`CCCC(=O)OCc1cc(=O)n(C)c2c3c4c(cc12)c(C)cc(=O)n4CO3`: the T/C (dose: 200.0 mg/kg/injection, schedule: Q01DX010 (sc), vehicle: Klucel (hydroxypropylcellulose) (HPC)) was 71 % of control.

For the molecule `Nc1ccc(C(OC(=O)c2cc3ccccc3c(Cc3c(O)c(C(=O)OC(c4ccc(N)cc4)(c4ccc(N)cc4)c4ccc(N)cc4)cc4ccccc34)c2O)(c2ccc(N)cc2)c2ccc(N)cc2)cc1`, the T/C (dose: 36.0 mg/kg/injection, schedule: Q04DX004 (sc), vehicle: saline with Tween-80) was 118 % of control; the T/C (dose: 72.0 mg/kg/injection, schedule: Q04DX004 (sc), vehicle: saline with Tween-80) is 70 % of control; the T/C (dose: 144.0 mg/kg/injection, schedule: Q04DX004 (sc), vehicle: saline with Tween-80) is 68 % of control; the T/C (dose: 150.0 mg/kg/injection, schedule: Q04DX004 (sc), vehicle: saline with Tween-80) is 94 % of control; the T/C under setting [1] was 55 % of control.

As to `CC(=O)OCC(OC(C)=O)C(Cl)CCl` (stereo unspecified), the T/C runs as follows: (dose: 31.25 mg/kg/injection, schedule: Q04DX004 (ip), vehicle: saline) 114 % of control; (dose: 62.5 mg/kg/injection, schedule: Q04DX004 (ip), vehicle: saline) 121 % of control; (dose: 125.0 mg/kg/injection, schedule: Q04DX004 (ip), vehicle: saline) 84 % of control; (dose: 250.0 mg/kg/injection, schedule: Q04DX004 (ip), vehicle: saline) 100 % of control; (dose: 500.0 mg/kg/injection, schedule: Q04DX004 (ip), vehicle: saline) 115 % of control.
